Experimental data reported in patent US10800772B2 (Gilead Sciences, Inc., priority 2016, dated 2020).
Read-outs that look alike come from different tables or passages of the source.

Key:
Format in all cases: cell-based, HIV-1
HIV-IIIb IN T174I BT = assay: Antiviral assay in MT4 cells, HIV-IIIb IN T174I BT virus (from viral breakthrough)
Method in brief: (§1)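 HIV-IIIb at 0.004 m.o.i., 3 h pre-infection of MT4 cells at 37 °C; 2000 cells/well in RPMI 1640 + 10% FBS with 3-fold compound dilutions, 10 conc., quadruplicate. 5-day incubation, CellTiter-Glo readout. EC50 = 50% luminescence decrease.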

HIV-IIIb IN T174I DE = assay: Antiviral assay in MT4 cells, HIV-IIIb IN T174I DE virus (from dose escalation passaging)
Method in brief: as §1

HIV-IIIb (wildtype) = assay: Antiviral assay in MT4 cells, HIV-IIIb wildtype; details: read-out: WT EC50
Method in brief: as §1

[1] = Human immunodeficiency virus 1, IIIB, MT4, 120 h, read-out: T174I BT EC50, MT4 cells, HIV-IIIb IN T174I BT (viral breakthrough), 5 days, CellTiter-Glo
[2] = Human immunodeficiency virus 1, IIIB, MT4, 120 h, read-out: T174I DE EC50, MT4 cells, HIV-IIIb IN T174I DE (dose escalation), 5 days, CellTiter-Glo
[3] = Human immunodeficiency virus 1, IIIB, MT4, 120 h
[4] = MT4 cells, HIV-IIIb IN T174I BT (viral breakthrough), 5 days, CellTiter-Glo, read-out: T174I BT EC50
[5] = MT4 cells, HIV-IIIb IN T174I DE (dose escalation), 5 days, CellTiter-Glo, read-out: T174I DE EC50
[6] = MT4 cells, HIV-IIIb wildtype, 5 days, CellTiter-Glo

Compound: CC(=O)N1CC[C@H]1CN1CCC(c2nn(C)c3ccc(-c4nc5cc(C)c([C@H](OC(C)(C)C)C(=O)O)c(-c6ccc(Cl)cc6)c5s4)cc23)CC1 [Compound 151, (S)-2-(2-(3-(1-(((S)-1-acetyl-azetidin-2-yl)methyl)piperidin-4-yl)-1-methyl-1H-indazol-5-yl)-7-(4-chloro-phenyl)-5-methylbenzo[d]thiazol-6-yl)-2-(tert-butoxy) acetic acid]
- EC50 (HIV-IIIb IN T174I BT; [1]): 237 nM
- EC50 (HIV-IIIb IN T174I DE; [2]): 231 nM
- EC50 (HIV-IIIb (wildtype); [3]): 16 nM

Compound: CCN1CCN(c2nn(C)c3ccc(-c4nc5cc(C)c([C@H](OC(C)(C)C)C(=O)O)c(-c6ccc(Cl)cc6)c5s4)cc23)C1=O [Compound 82, (S)-2-(tert-butoxy)-2-(7-(4-chlorophenyl)-2-(3-(3-ethyl-2-oxoimidazolidin-1-yl)-1-methyl-1H-indazol-5-yl)-5-methylbenzo[d]thiazol-6-yl)acetic acid]
- EC50 (HIV-IIIb IN T174I BT; [1]): 3090 nM
- EC50 (HIV-IIIb IN T174I DE; [2]): 3870 nM
- EC50 (HIV-IIIb (wildtype); [3]): 14 nM

Compound: CCn1nc(C2CCN(C3CN(C(=O)OC)C3)CC2)c2cc(-c3nc4cc(C)c([C@H](OC(C)(C)C)C(=O)O)c(-c5ccc(Cl)cc5)c4s3)ccc21 [Compound 48, (S)-2-(tert-butoxy)-2-(7-(4-chlorophenyl)-2-(1-ethyl-3-(1-(1-(methoxycarbonyl)azetidin-3-yl)piperidin-4-yl)-1H-indazol-5-yl)-5-methylbenzo[d]thiazol-6-yl)acetic acid]
- EC50 (HIV-IIIb IN T174I BT; [1]): 70 nM
- EC50 (HIV-IIIb IN T174I DE; [2]): 165 nM
- EC50 (HIV-IIIb (wildtype); [3]): 8 nM

Compound: Cc1cc2nc(-c3ccc4c(c3)c(N3CCN5C(=O)COC[C@H]5C3)nn4C)sc2c(-c2ccc(Cl)cc2)c1[C@H](OC(C)(C)C)C(=O)O [Compound 205, (S)-2-(tert-butoxy)-2-(7-(4-chloro-phenyl)-5-methyl-2-(1-methyl-3-((R)-4-oxohexa-hydropyrazino [2,1-c][1,4]oxazin-8(1H)-yl)-1H-indazol-5-yl)benzo[d]thiazol-6-yl)acetic acid]
- EC50 (HIV-IIIb IN T174I BT; [1]): 457 nM
- EC50 (HIV-IIIb IN T174I DE; [2]): 736 nM
- EC50 (HIV-IIIb (wildtype); [3]): 7 nM

Compound: Cc1cc2nc(-c3ccc4c(c3)c(N3CCN(C5COC5)CC3)nn4C)sc2c(-c2ccc(Cl)cc2)c1[C@H](OC(C)(C)C)C(=O)O [Compound 104, (S)-2-(tert-butoxy)-2-(7-(4-chlorophenyl)-5-methyl-2-(1-methyl-3-(4-(oxetan-3-yl)piperazin-1-yl)-1H-indazol-5-yl)benzo[d]thiazol-6-yl)acetic acid]
- EC50 (HIV-IIIb IN T174I BT; [1]): 491 nM
- EC50 (HIV-IIIb IN T174I DE; [2]): 904 nM
- EC50 (HIV-IIIb (wildtype); [3]): 11 nM

Compound: CC(=O)N1CC(N2CCC(c3nn(C(F)F)c4ccc(-c5nc6cc(C)c([C@H](OC(C)(C)C)C(=O)O)c(-c7ccc(Cl)cc7)c6s5)nc34)CC2)C1 [Compound 183, (S)-2-(2-(3-(1-(1-acetylazetidin-3-yl)piperidin-4-yl)-1-(difluoromethyl)-1H-pyrazolo [4,3-b]pyridin-5-yl)-7-(4-chloro-phenyl)-5-methylbenzo[d]thiazol-6-yl)-2-(tert-butoxy) acetic acid]
- EC50 (HIV-IIIb IN T174I BT; [1]): 29 nM
- EC50 (HIV-IIIb IN T174I DE; [2]): 69 nM
- EC50 (HIV-IIIb (wildtype); [3]): 2 nM

Compound: COC(=O)N1CC(N2CCC(c3nn(C)c4ncc(-c5nc6cc(C)c([C@H](OC(C)(C)C)C(=O)O)c(-c7ccc(Cl)cc7)c6s5)nc34)CC2)C1 [Compound 119, (S)-2-(tert-butoxy)-2-(7-(4-chlorophenyl)-2-(3-(1-(1-(methoxycarbonyl)azetidin-3-yl)piperidin-4-yl)-1-methyl-1H-pyrazolo[3,4-b]pyrazin-5-yl)-5-methylbenzo[d]thiazol-6-yl)acetic acid]
- EC50 (HIV-IIIb IN T174I BT; [1]): 310 nM
- EC50 (HIV-IIIb IN T174I DE; [2]): 332 nM
- EC50 (HIV-IIIb (wildtype); [3]): 8 nM

Compound: Cc1cc2nc(-c3ccc4c(c3)c(N3CCC3=O)nn4C)sc2c(-c2ccc(Cl)cc2)c1[C@H](OC(C)(C)C)C(=O)O [Compound 3, (S)-2-(tert-butoxy)-2-(7-(4-chlorophenyl)-5-methyl-2-(1-methyl-3-(2-oxoazetidin-1-yl)-1H-indazol-5-yl)benzo[d]thiazol-6-yl)acetic Acid]
- EC50 (HIV-IIIb IN T174I BT; [1]): 5710 nM
- EC50 (HIV-IIIb IN T174I DE; [2]): 5710 nM
- EC50 (HIV-IIIb (wildtype); [3]): 43 nM

Compound: CCn1nc(C2CCN([C@@H]3CCN(C(=O)OC)C3)CC2)c2cc(-c3nc4cc(C)c([C@H](OC(C)(C)C)C(=O)O)c(-c5ccc(Cl)cc5)c4s3)ccc21 [Compound 50, (S)-2-(tert-butoxy)-2-(7-(4-chlorophenyl)-2-(1-ethyl-3-(1-((R)-1-(methoxycarbonyl)pyrrolidin-3-yl)piperidin-4-yl)-1H-indazol-5-yl)-5-methylbenzo[d]thiazol-6-yl)acetic Acid]
- EC50 (HIV-IIIb IN T174I BT; [1]): 74 nM
- EC50 (HIV-IIIb IN T174I DE; [2]): 276 nM
- EC50 (HIV-IIIb (wildtype); [3]): 4 nM

Compound: (S)-2-(tert-butoxy)- 2-(7-(4-chloro- phenyl)-2-(3-((R)- hexahydropyrazino [2,1-c][1,4]oxazin- 8(1H)-yl)-1-methyl- 1H-indazol-5-yl)- 5-methylbenzo[d] thiazol-6-yl)acetic acid [Compound 135]
- EC50 (HIV-IIIb IN T174I BT; [4]): 399 nM
- EC50 (HIV-IIIb IN T174I DE; [5]): 1060 nM
- EC50 (HIV-IIIb (wildtype); [6]): 10 nM

Compound: Cc1cc2nc(-c3ccc4c(c3)c(C3CCN(C5(C)COC5)CC3)nn4C)sc2c(-c2ccc(Cl)cc2)c1[C@H](OC(C)(C)C)C(=O)O [Compound 20, (S)-2-(tert-butoxy)-2-(7-(4-chlorophenyl)-5-methyl-2-(1-methyl-3-(1-(3-methyloxetan-3-yl)piperidin-4-yl)-1H-indazol-5-yl)benzo[d]thiazol-6-yl)acetic Acid]
- EC50 (HIV-IIIb IN T174I BT; [1]): 287 nM
- EC50 (HIV-IIIb IN T174I DE; [2]): 542 nM
- EC50 (HIV-IIIb (wildtype); [3]): 7 nM

Compound: Cc1cc2nc(-c3ccc4c(n3)c(C3CCN(C5CN(C(=O)OC(C)C)C5)CC3)nn4C)sc2c(-c2ccc(Cl)cc2)c1[C@H](OC(C)(C)C)C(=O)O [Compound 168, (S)-2-(tert-butoxy)-2-(7-(4-chloro-phenyl)-2-(3-(1-(1-(isopropoxy-carbonyl)azetidin-3-yl)piperidin-4-yl)-1-methyl-1H-pyrazolo[4,3-b]pyridin-5-yl)-5-methylbenzo[d]thiazol-6-yl) acetic acid]
- EC50 (HIV-IIIb IN T174I BT; [1]): 230 nM
- EC50 (HIV-IIIb IN T174I DE; [2]): 456 nM
- EC50 (HIV-IIIb (wildtype); [3]): 11 nM

Compound: (S)-2-(tert-butoxy)- 2-(7-(4-chloro- phenyl)-2-(3-(1-(2- (dimethylamino) ethyl)piperidin-4- yl)-1-methyl-1H- indazol-5-yl)-5- methylbenzo[d] thiazol-6-yl) acetic acid [Compound 130]
- EC50 (HIV-IIIb IN T174I BT; [4]): 122 nM
- EC50 (HIV-IIIb IN T174I DE; [5]): 232 nM
- EC50 (HIV-IIIb (wildtype); [6]): 12 nM

Compound: Cc1cc2nc(-c3ccc4c(c3)c(C3CCN(C(=O)OC(C)(C)C)CC3)nn4C)sc2c(-c2ccc(Cl)cc2)c1[C@H](OC(C)(C)C)C(=O)O [Compound 23, (S)-2-(tert-butoxy)-2-(2-(3-(1-(tert-butoxycarbonyl)piperidin-4-yl)-1-methyl-1H-indazol-5-yl)-7-(4-chlorophenyl)-5-methylbenzo[d]thiazol-6-yl)acetic Acid]
- EC50 (HIV-IIIb IN T174I BT; [1]): 987 nM
- EC50 (HIV-IIIb IN T174I DE; [2]): 356 nM
- EC50 (HIV-IIIb (wildtype); [3]): 99 nM

Compound: Cc1cc2nc(-c3ccc4c(c3)c(C3CCN(C5COC5)CC3)nn4C(F)F)sc2c(-c2ccc(Cl)cc2)c1[C@H](OC(C)(C)C)C(=O)O [Compound 39, (S)-2-(tert-butoxy)-2-(7-(4-chlorophenyl)-2-(1-(difluoromethyl)-3-(1-(oxetan-3-yl)piperidin-4-yl)-1H-indazol-5-yl)-5-methylbenzo[d]thiazol-6-yl)acetic acid]
- EC50 (HIV-IIIb IN T174I BT; [1]): 651 nM
- EC50 (HIV-IIIb IN T174I DE; [2]): 1150 nM
- EC50 (HIV-IIIb (wildtype); [3]): 13 nM

Compound: Cc1cc2nc(-c3ccc4c(c3)c(C3CCN(C(=O)C5(C)COC5)CC3)nn4C)sc2c(-c2ccc(Cl)cc2)c1[C@H](OC(C)(C)C)C(=O)O [Compound 160, (S)-2-(tert-butoxy)-2-(7-(4-chloro-phenyl)-5-methyl-2-(1-methyl-3-(1-(3-methyloxetane-3-carbonyl)piperidin-4-yl)-1H-indazol-5-yl)benzo[d]thiazol-6-yl)acetic acid]
- EC50 (HIV-IIIb IN T174I BT; [1]): 375 nM
- EC50 (HIV-IIIb IN T174I DE; [2]): 756 nM
- EC50 (HIV-IIIb (wildtype); [3]): 15 nM

Compound: COC(=O)N1CCC(c2nn(C)c3ccc(-c4nc5cc(C)c([C@H](OC(C)(C)C)C(=O)O)c(-c6ccc(Cl)cc6)c5s4)cc23)C1 (stereo partly drawn) [Compound 72, (2S)-2-(tert-butoxy)-2-(7-(4-chlorophenyl)-2-(3-(1-(methoxycarbonyl)pyrrolidin-3-yl)-1-methyl-1H-indazol-5-yl)-5-methylbenzo[d]thiazol-6-yl)acetic acid]
- EC50 (HIV-IIIb IN T174I BT; [1]): 553 nM
- EC50 (HIV-IIIb IN T174I DE; [2]): 1030 nM
- EC50 (HIV-IIIb (wildtype); [3]): 7 nM

Compound: Cc1cc2nc(-c3ccc4c(n3)c(C3CCN([C@H]5C[C@H](O)C5)CC3)nn4C)sc2c(-c2ccc(Cl)cc2)c1[C@H](OC(C)(C)C)C(=O)O [Compound 186, (S)-2-(tert-butoxy)-2-(7-(4-chloro-phenyl)-2-(3-(1-((1r,3r)-3-hydroxy-cyclobutyl)piperidin-4-yl)-1-methyl-1H-pyrazolo[4,3-b]pyridin-5-yl)-5-methylbenzo[d]thiazol-6-yl) acetic acid]
- EC50 (HIV-IIIb IN T174I BT; [1]): 367 nM
- EC50 (HIV-IIIb IN T174I DE; [2]): 784 nM
- EC50 (HIV-IIIb (wildtype); [3]): 29 nM

Compound: Cc1cc2nc(-c3ccc4c(c3)c(N3CC(N5CCOCC5)C3)nn4C)sc2c(-c2ccc(Cl)cc2)c1[C@H](OC(C)(C)C)C(=O)O [Compound 88, (S)-2-(tert-butoxy)-2-(7-(4-chlorophenyl)-5-methyl-2-(1-methyl-3-(3-morpholinoazetidin-1-yl)-1H-indazol-5-yl)benzo[d]thiazol-6-yl)acetic acid]
- EC50 (HIV-IIIb IN T174I BT; [1]): 1240 nM
- EC50 (HIV-IIIb IN T174I DE; [2]): 1700 nM
- EC50 (HIV-IIIb (wildtype); [3]): 10 nM
